Measurements published in the OPERA property sets (Mansouri et al. 2018).
Converted amounts (≈) assume the structure as drawn. Where a SMILES comes first, the peptide text is derived from it. The star is where a group is joined. NHtBu = CC(C)(C)N*

SMILES	logP	solubility [µM]
CCN(CC)CCCN=c1cc2n(-c3ccc(Cl)cc3)c3ccccc3nc-2cc1Nc1ccc(Cl)cc1	8.05	
CCCCOCCNc1ccccc1C(N)=O	2.27	
O=C(O)C(=O)Nc1nc(-c2ccc3c(c2)OCCO3)cs1	1.8	
COC(=O)C1=C(C)NC(C)=C(C(=O)OCCN2CCN(C(c3ccccc3)c3ccccc3)CC2)C1c1cccc([N+](=O)[O-])c1 (centres undefined)	5.2	
c1ccc2nc3ccc4ccccc4c3cc2c1	4.48	
Brc1cc(Br)c(Oc2c(Br)c(Br)c(Br)c(Br)c2Br)cc1Br	8.71	
COc1sc(C(=O)Nc2nn[nH]n2)c(OC(C)C)c1Br	1.35	
Clc1ccc2cc(Cl)c(Cl)cc2c1	5.12	0.0721 (≈ 0.0167 µg/mL)
CC(=O)NC(C)C(=O)NC(CCC(=O)O)C(=O)NC(C)(C)C (stereo not drawn) (Ac-Ala-Glu-NHtBu; configuration not given here)	-0.67	
C=CC(=O)NCCCN1CCSCC1	0.54	
CC(C)=NNc1ccc([N+](=O)[O-])cc1[N+](=O)[O-]	3.05	
Cc1cc(Cl)c(Cl)cc1Cc1ccc(Cl)cc1Cl	7.41	
O=c1ccc2cc3ccoc3cc2o1	1.67	
CCCCCCCOC(=O)c1ccc(N)cc1	4.5	
CCCCCCCC	5.18	
Clc1cc(Cl)cc(O[Si]23OCCN(CCO2)CCO3)c1	1.22	
COc1ccc(C(=O)CCCC(=O)O)cc1Cl	2.17	
Cc1cccc(C)c1C		626 (≈ 75.2 µg/mL)
NC(N)=Nc1nc(CSCCC(N)=NS(N)(=O)=O)cs1	-0.64	
CCN(CC)CCN=c1cc2n(-c3ccc(Cl)cc3)c3ccccc3nc-2cc1Nc1ccc(Cl)cc1	7.97	
CC1=C(C(=O)OC(C)C)C(c2cccc([N+](=O)[O-])c2)C(C(=O)OC2CN(C(c3ccccc3)c3ccccc3)C2)=C(N)N1 (centres undefined)	5.18	
CCCNC(=O)CCC(NS(=O)(=O)c1ccccc1)C(=O)O (centres undefined)	0.01	
COc1ccccc1OCC(O)CO (centres undefined)	1.39	
CCCCC(OC(Cc1ccccc1)C(=O)N1CCC(OCOC)CC1)C(=O)NC(CC1CCCCC1)C(O)CC(C(=O)NCCCNC(=NC#N)NC)C(C)C (centres undefined)	4.4	

SMILES	logP	solubility [µM]
CCCn1ccc(=O)c(O)c1	-0.17	
CSc1nc(N=[N+]=[N-])nc(NC(C)C)n1	3	
Nc1ccc([N+](=O)[O-])cc1Cl	2.14	
N#CCCN(N)c1nc2cc(C(F)(F)F)ccc2o1	1.72	
c1ccc(Cn2cncn2)cc1	0.92	
CC(=O)OCCOCn1cnc2cnc(N)nc21	-0.61	
COc1ccc2c(c1)OCC1(O)c3cc4c(cc3OC21)OCO4 (centres undefined)	2.58	
CC(C)(C)C1=CC(=O)C=C(C(C)(C)C)C1=O	4.42	
COc1cc(N=Nc2c(Br)cc([N+](=O)[O-])cc2[N+](=O)[O-])c(NC(C)=O)c(N(CCOC(C)=O)CCOC(C)=O)c1	4.44	
Clc1ccc(C2OC2c2ccccc2)cc1 (centres undefined)	4.54	
Oc1cccc(N=C=S)c1	3.23	
CCCC(=O)n1ncc2c(O)ncnc21	0.85	
Cc1ccccc1C1=CCN(C)CC1	3.1	
BrCBr	1.7	
CNC(=O)NCCn1nc(-c2ccccc2)ccc1=O	0.39	
Cc1ccc(OP(=O)(Oc2ccc(C)cc2)Oc2ccc(C)cc2)cc1		0.814 (≈ 0.3 µg/mL)
Cc1cc(Cc2c(Cl)cccc2Cl)c(Cl)cc1Cl	6.73	
Clc1c(Cl)c(Cl)c2c(Cl)c(Cl)c(Cl)c(Cl)c2c1Cl	8.5	0.000198 (≈ 8e-05 µg/mL)
CC(=O)N(C)S(=O)(=O)c1ccc(C)cc1	1.73	
CC1CCC2C(C)C(OC3OC(C(=O)O)C(O)C(O)C3O)OC3OC4(C)CCC1C32OO4 (centres undefined)	1.08	
OCC(CO)(CO)CO	-1.69	
Cc1ccc(S(=O)(=O)N(C)C(=O)c2ccccc2)cc1	2.95	
CCO[C@H]1O[C@@H]2OC3(C)CC[C@H]4[C@H](C)CC[C@@H]([C@H]1C)[C@@]24OO3	3.89	
Nc1ccc(C=Cc2ccc(N)cc2S(=O)(=O)O)c(S(=O)(=O)O)c1	-1.7	

SMILES	logP	solubility [µM]
CN(C)c1ccc2cc3ccc(N(C)C)cc3nc2c1		2640 (≈ 700 µg/mL)
C/C=C(/C)C(=O)O[C@H]1CCN2CC=C(COC(=O)[C@](O)([C@H](C)OC)C(C)(C)O)[C@H]12	1.28	
COc1cccc(OC)c1OCCN(C)C	1.05	
O=C(O)c1cc[n+]([O-])cc1		79100 (≈ 11000 µg/mL)
CCCCN(CCC)N=O	2.09	
CC(C)Nc1nc(Cl)nc(NCCO)n1	0.78	
CC(=O)Nc1ccc(C(=O)O)c(O)c1	1.62	
CC(NC(CCc1ccccc1)C(=O)O)C(=O)N1C(C(=O)O)CC2CCCC21 (centres undefined)	0.22	
COc1ccc(C(C)NCCC(c2ccccc2)c2ccccc2)cc1OC (centres undefined)	5.8	
N=C(N)NN=C1C=CC(=NNC(N)=S)C=C1	1.23	
CN1CC(C(=O)O)CC1=O (centres undefined)	-1.5	
COc1ncnc2c1ncn2C1OC(COC(=O)C(C)(C)C)C(O)C1OC(=O)C(C)(C)C (centres undefined)	3.4	
OCc1ccccc1Cl	1.77	
ClCC1CO1 (centres undefined)	0.45	
Cc1cc(Cc2cc(Cl)ccc2Cl)c(Cl)cc1Cl	7.53	
OCc1cc(Br)cc(Br)c1O	2.72	
NS(=O)(=O)c1nn2c(=Nc3cccc(F)c3)snc2s1	3.06	
Clc1cc2c(Cl)c(Cl)c(Cl)c(Cl)c2c(Cl)c1Cl	8.2	
CCn1c2ccccc2c2ccccc21	4.49	
CC(C)(C)[C@@H](O)[C@H](Cc1ccc(Cl)cc1Cl)n1cncn1	3.8	
NC(=O)c1cccc2ccccc12	1.88	
Cc1ccc2oc(N(N)CCC#N)nc2c1	1.48	
Cc1ccc(-c2ccc(C)cc2)cc1	5.09	
O=C(O)C1C2CCC(O2)C1C(=O)O (centres undefined)	1.91	
